This is an account of results in patent publication US20230027072A1, “IMPROVED METHODS, KITS, COMPOSITIONS AND DOSING REGIMENS FOR THE USE OF HETEROCYCLIC INHIBITORS OF ERK1 AND ERK2” (Asana Biosciences, LLC, priority 2019, published 2023).

One experiment deals with T1, ERK1 (Homo sapiens, UniProt P27361).
T1 construct: purchased Jubilant Biosys
In words: ERK1 HTRF (biochemical) assay. As to the method:
(§1) ERK1 and ERK2 HTRF (Biochemical) Assays
(§2) The assays described below employed a homogeneous time resolved fluorescence (HTRF) technique. The compounds were serially diluted by half-log with concentrations ranging from 0.0005 to 10 uM in the assay buffer (50 mM Tris pH-7.5, 1 mM EGTA, 2 mM DTT, 10 mM MgCl2, 0.1% Tween-20) and 20 uL of substrate-ATP mix [1 uM Biotin—LC-Myelin Basic Protein (MBP) derivatized Peptide (Anaspec)-24 uM ATP (Sigma)] was added to each well of the assay plate. Then 10 uL of enzyme mix [25 nM ERK1 or ERK2 (Jubilant Biosys) in assay buffer] was added to each well. The plate was incubated at room temperature for 60 min with shaking. The HTRF mix [625 nM LANCE® Ultra Europium-anti-phospho-MBP (Perkin Elmer) and 2 nM Phycolink® Streptavidin-Allophycocyanin (SA-APC) (Prozyme) in HTRF buffer (50 mM Tris-HCl pH-7.5, 100 mM NaCl, 0.1% BSA, 0.05% Tween20, 0.5 mM EDTA)] was prepared and 75 uL of this mix was added to the HTRF plate. After incubation for 60 min at room temperature, 10 uL of the reaction mixture was transferred to the HTRF assay plate and incubated for 45 min at room temperature with shaking. Plate was read using Pherastar in HTRF mode (excitation 337 nm, emission 665 & 620 nm). The IC50 values (half maximal inhibitory concentration values) were subsequently determined using a sigmoidal dose-response curve (variable slope) in GraphPad Prism® 5 software.
Background: Time-resolved FRET reads energy transfer from a long-lived donor to a nearby acceptor.

In another experiment the target is T2, ERK2 (Homo sapiens, UniProt P28482).
T2 construct: purchased Jubilant Biosys
In words: ERK2 HTRF (biochemical) assay. As to the method:
as §1, §2

Experiment [1] deals with HT-29 (colorectal carcinoma, B-RafV600E) cells. In words: Cell proliferation (Alamar Blue) assay, HT-29. It counts as cell-based, human. The settings on record: Homo sapiens, HT-29, 72 h, read-out: Cell Proliferation Assay HT29 IC50. As to the method:
(§3) Cell Proliferation (Alamar Blue) Assay
(§4) HT-29 (colorectal carcinoma, B-RafV600E), HCT116 (colorectal carcinoma, K Ras G13D), A375 (melanoma, B-RafV600E) and SK-Mel2 (melanoma, NRAS Q61R) cells (obtained from ATCC, USA) were seeded (5000 cells/well) in 96-well tissue culture plate and incubated at 37° C./5% CO2 for 16-24 hours. The cells were then treated with compounds, at concentrations typically from 0.0005 to 10 uM prepared in 3-fold serial dilutions. The plates were then incubated for 72 h at 37° C./5% CO2 in a moist environment. Then Alamar Blue™ reagent (final concentration 1×) was added to each well and incubated for 1-3 h at 37° C./5% CO2. The plates were read on fluorescence reader at 540 nm excitation and 590 nm emission wavelengths. The IC50 values were subsequently determined using a sigmoidal dose-response curve (variable slope) using GraphPad Prism® 5 software. Compounds of the present disclosure caused inhibition of HT-29, HCT116, A375 and SK-Mel2 cell proliferation as determined in these assays.
A general note: The colour change of resazurin is a common sign of viable cells or microbes.

Experiment [2] relates to HCT116 (colorectal carcinoma, K Ras G13D) cells. In words: Cell proliferation (Alamar Blue) assay, HCT116. The settings on record: Homo sapiens, HCT-116, 72 h. The class given is cell-based, human. As to the method: as §3, §4
The test system of experiment [3] is phosphorylation of RSK1(S380) (the downstream target of ERK1/2). In words: Mechanistic (phospho-RSK1(S380) ELISA) assay in HT-29 cells. To be noted: Homo sapiens, HT-29, 2 h, 2 h treatment, read-out: Mechanistic Cell Assay RSK1 Phos HT29 IC50. The class given is cell-based, human. Here is the method:
Mechanistic (Phospho-RSK1(5380) ELISA) Assay
HT-29 cells (colorectal carcinoma, B-RafV600E); obtained from ATCC, USA) were seeded (60,000 cells/well) in a 96-well plate and incubated at 37° C./5% CO2 overnight and then treated with desired compound dilutions for 2 h. Medium was removed and cells were rinsed once with ice-cold 1×PBS, then 0.070 mL ice-cold 1× cell lysis buffer containing 1 mM PMSF was added to each well and the plate was incubated on a shaker for 2 h and 30 min at 4° C. The plate was then centrifuged for 20 min (×4000 rpm) at 4° C. and the supernatant was transferred to a new plate. Cell lysates were diluted with sample diluent at a ratio of 1:1. The ELISA was then carried out following the manufacturer's protocol (PathScan® phospho-RSK1(Ser380) Sandwich ELISA Kit, Cell Signaling Technologies). The plate was read at 450 nm within 30 min after adding STOP solution. The IC50 values were subsequently determined using a sigmoidal dose-response curve (variable slope) in GraphPad Prism® 5 software. Compounds of the present disclosure inhibited phosphorylation of RSK1(5380) (the downstream target of ERK1/2) as determined in this assay.
(An ELISA detects its analyte on a solid surface through an enzyme-linked reagent.)

T1 sequence (P27361 whole entry): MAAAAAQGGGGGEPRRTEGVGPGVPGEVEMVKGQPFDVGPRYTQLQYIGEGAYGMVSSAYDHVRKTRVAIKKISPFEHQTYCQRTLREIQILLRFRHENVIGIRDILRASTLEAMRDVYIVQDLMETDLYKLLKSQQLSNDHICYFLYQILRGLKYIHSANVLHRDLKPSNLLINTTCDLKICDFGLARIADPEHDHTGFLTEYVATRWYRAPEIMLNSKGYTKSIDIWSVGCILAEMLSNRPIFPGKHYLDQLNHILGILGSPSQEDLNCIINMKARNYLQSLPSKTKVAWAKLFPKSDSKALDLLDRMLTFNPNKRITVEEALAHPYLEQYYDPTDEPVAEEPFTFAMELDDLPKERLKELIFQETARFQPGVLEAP
T2 sequence (P28482 whole entry): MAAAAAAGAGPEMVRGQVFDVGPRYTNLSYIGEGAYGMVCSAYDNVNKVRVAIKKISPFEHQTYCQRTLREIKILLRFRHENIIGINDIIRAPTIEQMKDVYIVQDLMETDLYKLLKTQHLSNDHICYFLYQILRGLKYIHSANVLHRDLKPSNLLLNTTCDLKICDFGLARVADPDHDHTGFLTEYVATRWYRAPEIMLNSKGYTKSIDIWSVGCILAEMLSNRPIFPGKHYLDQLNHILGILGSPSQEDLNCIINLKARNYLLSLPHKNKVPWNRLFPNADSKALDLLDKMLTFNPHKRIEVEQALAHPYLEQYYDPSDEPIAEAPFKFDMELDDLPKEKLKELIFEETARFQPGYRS

As to `Cc1cnc(Nc2ccc(Oc3ccccc3)cc2)nc1-n1cnc(C(=O)N[C@H](CO)c2cccc(Cl)c2)c1` [Example 250, N-(1-(3-chlorophenyl)-2-hydroxyethyl)-1-(5-methyl-2-((4-phenoxyphenyl)-amino)pyrimidin-4-yl)-1H-imidazole-4-carboxamide], the IC50 on ERK1 is 500 to 2500 nM; against ERK2, 100 to 500 nM.

For the compound `Cc1cnc(N[C@H]2CCOC2)nc1-n1cnc(C(=O)N[C@H](CN)c2cc(F)cc(Cl)c2)c1` [Example 282, N-(2-amino-1-(3-chloro-5-fluorophenyl)ethyl)-1-(5-methyl-2-(((S)-tetrahydrofuran-3-yl)amino)pyrimidin-4-yl)-1H-imidazole-4-carboxamide], the IC50 in experiment [1] was ≤ 100 nM; against ERK1, ≤ 50 nM; in experiment [2] it was ≤ 100 nM; at ERK2 it was ≤ 50 nM; in experiment [3], ≤ 100 nM.

`Cc1cnc(Nc2ccc3c(c2)OC(F)(F)O3)cc1-n1cc(C(=O)NC(CN)Cc2ccccc2)nn1` (centres unmarked) [Compound 134]: the IC50 against ERK2 lay in the range of 500 to 2500 nM.

`Cc1cnc(NC(C)C2CCOCC2)nc1-n1cnc(C(=O)N[C@H](CO)c2cccc(Cl)c2)c1` (some centres unmarked) [Example 239]: the IC50 against ERK1 was ≤ 50 nM; in experiment [2], > 2500 nM; on ERK2, ≤ 50 nM; in experiment [3], 500 to 2500 nM.

For the compound `CC[C@@H](CO)Nc1cc(-n2cnc(C(=O)NC(CO)c3cccc(Cl)c3)c2)ccn1` (stereo partly drawn) [Compound 105, N-(1-(3-chlorophenyl)-2-hydroxyethyl)-1-(2-(((S)-1-hydroxybutan-2-yl)-amino)pyridin-4-yl)-1H-imidazole-4-carboxamide], the IC50 was > 2500 nM in experiment [1]; ≤ 50 nM against ERK1; > 2500 nM in experiment [2]; ≤ 50 nM against ERK2; 100 to 250 nM in experiment [3].
